Experimental data: US5668001A, “3-hydroxy-3-methyl-glutaryl-coa synthase preparation with improved stability” (MCW Research Foundation, Inc., priority 1994, dated 1997)
Where two headings read alike, the source gives them in different places.

Tests used:
[1] = test system: native avian liver HMG-CoA synthase (liver enzyme); conditions: read-out: Km AcCoA (Hydrolase Rxn.), absence of acetoacetyl-CoA; cited from earlier work
[2] = test system: native avian liver HMG-CoA synthase (liver enzyme); conditions: read-out: Km AcCoA (Overall Rxn.), apparent value, in presence of 20 μM acetoacetylCoA; cited from earlier work
[3] = biological target: T1, recombinant avian cytosolic HMG-CoA synthase (wild type, alanine replacing proline at residue 2; SEQ ID NO:2) expressed in E. coli (Gallus gallus, UniProt P23228, P2A); assay: R.CoA binding by EPR (Scatchard plot); parameters: species or system avian (chicken); conditions: 50 mM sodium phosphate pH 7.0, ambient temperature
T1 construct: Isolation of full length cDNA encoding avian HMG-CoA synthase from a λgt11 library has been reported; made in house; host or cells: E. coli BL21(DE3), plasmid pACS (pET-3d)
T1 sequence (P23228 2-522 P2A limits assumed): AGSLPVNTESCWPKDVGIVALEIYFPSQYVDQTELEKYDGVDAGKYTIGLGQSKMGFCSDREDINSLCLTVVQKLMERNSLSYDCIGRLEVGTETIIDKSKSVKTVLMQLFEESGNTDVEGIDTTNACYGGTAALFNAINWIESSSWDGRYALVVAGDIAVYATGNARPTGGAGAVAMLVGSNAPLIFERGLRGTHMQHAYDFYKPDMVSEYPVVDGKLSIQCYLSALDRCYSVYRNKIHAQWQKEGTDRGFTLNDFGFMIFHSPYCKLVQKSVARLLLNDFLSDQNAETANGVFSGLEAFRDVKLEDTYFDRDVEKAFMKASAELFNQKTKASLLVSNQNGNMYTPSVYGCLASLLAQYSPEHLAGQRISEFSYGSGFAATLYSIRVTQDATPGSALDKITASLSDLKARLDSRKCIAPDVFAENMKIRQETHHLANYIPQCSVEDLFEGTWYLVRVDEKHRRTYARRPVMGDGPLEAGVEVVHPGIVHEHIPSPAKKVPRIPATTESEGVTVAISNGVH
Description: Measurement of R.CoA Binding by EPR. Conventional X-band EPR spectra were recorded using a Varian Century-Line 9-GHz spectrometer. The samples contained variable concentrations of HMG-CoA synthase sites (0-930 μM) in 50 mM sodium phosphate buffer, pH 7.0, and 50 or 150 μM R.CoA. R.CoA bound to HMG-CoA synthase was calculated by comparing the amplitudes of high, center, or low-field lines of sample spectra to the corresponding lines observed with a solution containing an equal concentration of R.CoA in buffer. The data were analyzed (Miziorko et al., (1979) Biochemistry 18, 399-403) by Scatchard plot using linear regression analysis. The spectra were recorded at ambient temperature with a modulation amplitude of 1 G, modulation frequency of 100 KHz and microwave power 5 mW. Field sweep was 100 G and time constant was 0.5 sec. The EPR spectrum of bound R.CoA was obtained at 5 G modulation amplitude and variable gain. Rotational correlation time of the bound spin label was determined using a spectral simulation algorithm (Freed, (1976) Spin Labeling: Theory and Applications (L. Berliner, ed.) 1, 53-132; Schneider, et al. (1989) Biological Magnetic Resonance 8, 1-76).

[4] = substrate: CC(=O)SCCNC(=O)CCNC(=O)[C@H](O)C(C)(C)COP(=O)(O)OP(=O)(O)OC[C@H]1O[C@@H](n2cnc3c(N)ncnc32)[C@H](O)[C@@H]1OP(=O)(O)O; assay: purified protein, by the assay type; conditions: other: recombinant enzyme

In the case of `CC(=O)SCCNC(=O)CCNC(=O)[C@H](O)C(C)(C)COP(=O)(O)OP(=O)(O)OC[C@H]1O[C@@H](n2cnc3c(N)ncnc32)[C@H](O)[C@@H]1OP(=O)(O)O` [AcCoA, acetyl-CoA], the Km [1] is given as 14 µM and the Km [2] is given as 300 µM.

`CC(C)(COP(=O)(O)OP(=O)(O)OC[C@H]1O[C@@H](n2cnc3c(N)ncnc32)[C@H](O)[C@@H]1OP(=O)(O)O)[C@@H](O)C(=O)NCCC(=O)NCCSC(=O)C1CC(C)(C)N([O])C1(C)C` (some centres unmarked) [R.CoA] gave a Kd [3] of 102 µM.

B1: recombinant avian cytosolic HMG-CoA synthase (wild type, alanine replacing proline at residue 2; SEQ ID NO:2) expressed in E. coli (Gallus gallus; P2A) (protein)
chain: T1 sequence (P23228 2-522 P2A limits assumed)
Work on B1 yielded a Km ([4]; absence of acetoacetyl-CoA, pH 8.0, 30° C., pH 8.0) of 12 µM and a Km ([4]; apparent value, in presence of 20 μM acetoacetylCoA, 30° C., pH 8.2, pH 8.2) of 270 µM.
